Test results taken from patent publication US9309242B2, “Substituted pyrido[2,3-b]pyrazines as FGFR kinase inhibitors” (priority 2011, dated 2016).

Key:
[1] = tested on: Ba/F3-FGFR3-transfected cells; assay: Ba/F3-FGFR3 (plus IL3) cellular proliferation assay, counterscreen with 10 ng/ml murine IL3; format: cell-based; conditions: plus IL3 (10 ng/ml murine IL3, counterscreen); read-out: BAF3-FGFR3 (PLUS IL3) pIC50 (converted)
Procedure, shortened: (§1)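 Compound dilutions were dispensed first, then 20000 FGFR3-transfected Ba/F3 cells per well in serum-containing RPMI-1640 were added. After 24 h incubation at 37° C, Alamar Blue was applied for 4 h before relative fluorescence units were recorded. In the minus-IL3 format cells grow without cytokine; the other format contains 10 ng/ml murine IL3.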

FGFR3 (h) = FGFR3 (h) (Homo sapiens, UniProt P22607); assay: FGFR3 (enzymatic assay), TR-FRET; format: biochemical; conditions: read-out: FGFR 3 pIC50 (converted)
From the text: Time-Resolved Fluorescence Resonance Energy Transfer (TR-FRET) signal (ex340 nm.

FGFR1 (h) = FGFR1 (h) (Homo sapiens, UniProt P11362); assay: FGFR1 (enzymatic assay), TR-FRET; format: biochemical; conditions: read-out: FGFR 1 pIC50 (converted)
KDR (h) = KDR (h) (Homo sapiens, UniProt P35968); assay: KDR (VEGFR2) (enzymatic assay), TR-FRET; format: biochemical; conditions: read-out: VEGFR 2 (KDR) pIC50 (converted)
Procedure, shortened: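 3 μM ATP, 500 nM Btn-Flt3 substrate, 150 ng/ml kinase; HEPES pH 7.5 with MnCl2, DTT, vanadate, Triton; 1% DMSO. 120 min RT. Stop: EDTA + Eu-anti-P-Tyr + SA-XL-665, 60 min RT. Readout TR-FRET ex340/em620, 655 nm, RFU.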

[2] = molecular target: Ba/F3-FGFR4-transfected cells (Homo sapiens, UniProt P22455); assay: Ba/F3-FGFR4 cellular proliferation assay, Alamar Blue; format: cell-based
Procedure, shortened: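 Fluorescence read-out (ex. 540 nm, em. 590 nm) of resazurin-based Alamar Blue after 4 h, following 24 h compound exposure of Ba/F3-FGFR4-transfected cells (20000/well) at 37° C, 5% CO2.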

[3] = tested on: Ba/F3-FGFR1-transfected cells; assay: Ba/F3-FGFR1 (plus IL3) cellular proliferation assay, counterscreen with 10 ng/ml murine IL3; format: cell-based; conditions: plus IL3 (10 ng/ml murine IL3, counterscreen); read-out: BAF3-FGFR1 (PLUS IL3) pIC50 (converted)
Procedure, shortened: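 Proliferation read-out: resazurin-based Alamar Blue fluorescence (540/590 nm) after 4 h, following 24 h compound treatment of 20000 Ba/F3-FGFR1 cells per well in 10% FBS RPMI at 37° C. IL3 counterscreen used the same protocol plus 10 ng/ml murine IL3.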

[4] = molecular target: T1, Ba/F3-FGFR3-transfected cells (Homo sapiens, UniProt P22607); assay: Ba/F3-FGFR3 (minus IL3) cellular proliferation assay, Alamar Blue; format: cell-based
T1 construct: BAF3-FGFR3 (MIN IL3) pIC50; other: minus IL3
Procedure, shortened: as §1

FGFR4 (h) = FGFR4 (h) (Homo sapiens, UniProt P22455); assay: FGFR4 (enzymatic assay), TR-FRET; format: biochemical; conditions: FGFR 4 pIC50, enzymatic assay
[5] = molecular target: T2, Ba/F3-FGFR1-transfected cells (Homo sapiens, UniProt P11362); assay: Ba/F3-FGFR1 (minus IL3) cellular proliferation assay, Alamar Blue; format: cell-based
T2 construct: BAF3-FGFR1 (MIN IL3) pIC50; other: minus IL3
Procedure, shortened: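 Compound is dispensed first, then FGFR1-transfected Ba/F3 cells are added at 20000 per well in phenol red-free RPMI-1640 containing 10% FBS. After 24 h at 37 °C, Alamar Blue is added for 4 h and fluorescence is measured at 540/590 nm.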

FGFR2 (h) = FGFR2 (h) (Homo sapiens, UniProt P21802); assay: FGFR2 (enzymatic assay), TR-FRET; format: biochemical; conditions: enzymatic assay; read-out: FGFR 2 pIC50 (converted)
Procedure, shortened: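 hFGFR2 150 ng/ml; Btn-Flt3 500 nM; ATP 0.4 μM; 50 mM HEPES pH 7.5, 6 mM MnCl2, 1 mM DTT, 0.1 mM Na3VO4, 0.01% Triton-X-100; 1% DMSO final.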

T2 sequence (P11362 whole entry, change not shown): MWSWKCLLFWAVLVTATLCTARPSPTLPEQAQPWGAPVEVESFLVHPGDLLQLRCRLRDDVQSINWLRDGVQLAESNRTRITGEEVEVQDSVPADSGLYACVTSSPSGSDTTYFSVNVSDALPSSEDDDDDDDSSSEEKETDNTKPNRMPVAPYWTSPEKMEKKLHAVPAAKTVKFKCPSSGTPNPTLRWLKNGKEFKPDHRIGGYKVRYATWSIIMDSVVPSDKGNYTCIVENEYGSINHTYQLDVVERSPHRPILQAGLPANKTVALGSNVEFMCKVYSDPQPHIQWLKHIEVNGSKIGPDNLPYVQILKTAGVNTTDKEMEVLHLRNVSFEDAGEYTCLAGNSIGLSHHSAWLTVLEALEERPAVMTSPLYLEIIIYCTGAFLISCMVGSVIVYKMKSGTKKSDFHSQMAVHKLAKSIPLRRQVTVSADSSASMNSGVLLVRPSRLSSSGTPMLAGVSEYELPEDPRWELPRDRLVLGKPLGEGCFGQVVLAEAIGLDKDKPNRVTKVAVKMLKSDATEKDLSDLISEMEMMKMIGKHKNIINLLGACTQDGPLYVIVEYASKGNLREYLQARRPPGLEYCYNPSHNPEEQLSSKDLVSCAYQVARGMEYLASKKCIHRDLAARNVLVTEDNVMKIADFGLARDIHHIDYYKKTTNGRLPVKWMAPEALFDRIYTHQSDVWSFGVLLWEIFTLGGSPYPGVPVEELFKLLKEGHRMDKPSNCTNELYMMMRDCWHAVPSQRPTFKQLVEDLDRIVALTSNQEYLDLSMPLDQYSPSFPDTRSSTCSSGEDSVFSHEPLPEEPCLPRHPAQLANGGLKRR
Chain of FGFR4 (h) (P22455 22-802): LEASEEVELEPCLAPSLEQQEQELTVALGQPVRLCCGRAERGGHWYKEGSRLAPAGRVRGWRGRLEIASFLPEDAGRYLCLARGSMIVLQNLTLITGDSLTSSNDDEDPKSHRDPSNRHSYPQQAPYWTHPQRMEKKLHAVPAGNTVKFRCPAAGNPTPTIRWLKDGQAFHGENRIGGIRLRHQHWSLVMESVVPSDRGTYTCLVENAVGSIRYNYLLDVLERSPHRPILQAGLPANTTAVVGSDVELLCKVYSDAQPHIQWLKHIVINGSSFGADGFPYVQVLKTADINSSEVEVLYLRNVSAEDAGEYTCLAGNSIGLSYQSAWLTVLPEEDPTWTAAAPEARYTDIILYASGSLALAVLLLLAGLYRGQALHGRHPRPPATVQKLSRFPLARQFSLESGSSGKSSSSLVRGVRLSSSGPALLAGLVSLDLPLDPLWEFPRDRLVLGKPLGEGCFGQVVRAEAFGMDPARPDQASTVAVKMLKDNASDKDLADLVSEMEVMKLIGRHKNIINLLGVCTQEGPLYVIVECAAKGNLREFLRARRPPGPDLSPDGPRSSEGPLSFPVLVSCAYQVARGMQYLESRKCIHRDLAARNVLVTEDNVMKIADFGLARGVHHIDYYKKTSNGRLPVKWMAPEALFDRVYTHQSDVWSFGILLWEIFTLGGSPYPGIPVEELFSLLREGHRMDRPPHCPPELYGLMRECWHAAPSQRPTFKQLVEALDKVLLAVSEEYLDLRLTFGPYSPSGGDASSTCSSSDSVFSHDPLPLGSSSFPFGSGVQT
T1 sequence (P22607 whole entry, change not shown): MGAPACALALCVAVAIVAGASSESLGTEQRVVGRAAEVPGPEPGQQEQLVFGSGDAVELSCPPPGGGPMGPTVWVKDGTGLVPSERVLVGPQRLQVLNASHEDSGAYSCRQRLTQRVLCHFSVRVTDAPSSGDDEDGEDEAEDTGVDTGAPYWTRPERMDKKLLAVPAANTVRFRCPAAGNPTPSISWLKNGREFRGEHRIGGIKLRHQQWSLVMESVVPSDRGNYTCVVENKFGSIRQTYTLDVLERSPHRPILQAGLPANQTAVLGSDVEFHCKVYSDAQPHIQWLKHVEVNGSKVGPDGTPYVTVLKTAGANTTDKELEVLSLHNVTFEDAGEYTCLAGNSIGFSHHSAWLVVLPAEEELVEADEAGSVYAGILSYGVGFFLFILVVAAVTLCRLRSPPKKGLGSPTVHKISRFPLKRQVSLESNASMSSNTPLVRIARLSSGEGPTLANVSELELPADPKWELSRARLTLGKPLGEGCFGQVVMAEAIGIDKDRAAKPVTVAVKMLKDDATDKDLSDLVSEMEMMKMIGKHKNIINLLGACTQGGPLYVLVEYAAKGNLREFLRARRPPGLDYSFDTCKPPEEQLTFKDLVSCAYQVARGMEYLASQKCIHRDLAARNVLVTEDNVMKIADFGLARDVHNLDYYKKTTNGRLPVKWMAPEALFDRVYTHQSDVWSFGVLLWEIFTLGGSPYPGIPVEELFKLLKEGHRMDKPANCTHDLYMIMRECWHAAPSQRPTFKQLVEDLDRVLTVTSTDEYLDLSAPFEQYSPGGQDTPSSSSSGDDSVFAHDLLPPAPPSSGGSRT
Chain of FGFR2 (h) (P21802 22-821): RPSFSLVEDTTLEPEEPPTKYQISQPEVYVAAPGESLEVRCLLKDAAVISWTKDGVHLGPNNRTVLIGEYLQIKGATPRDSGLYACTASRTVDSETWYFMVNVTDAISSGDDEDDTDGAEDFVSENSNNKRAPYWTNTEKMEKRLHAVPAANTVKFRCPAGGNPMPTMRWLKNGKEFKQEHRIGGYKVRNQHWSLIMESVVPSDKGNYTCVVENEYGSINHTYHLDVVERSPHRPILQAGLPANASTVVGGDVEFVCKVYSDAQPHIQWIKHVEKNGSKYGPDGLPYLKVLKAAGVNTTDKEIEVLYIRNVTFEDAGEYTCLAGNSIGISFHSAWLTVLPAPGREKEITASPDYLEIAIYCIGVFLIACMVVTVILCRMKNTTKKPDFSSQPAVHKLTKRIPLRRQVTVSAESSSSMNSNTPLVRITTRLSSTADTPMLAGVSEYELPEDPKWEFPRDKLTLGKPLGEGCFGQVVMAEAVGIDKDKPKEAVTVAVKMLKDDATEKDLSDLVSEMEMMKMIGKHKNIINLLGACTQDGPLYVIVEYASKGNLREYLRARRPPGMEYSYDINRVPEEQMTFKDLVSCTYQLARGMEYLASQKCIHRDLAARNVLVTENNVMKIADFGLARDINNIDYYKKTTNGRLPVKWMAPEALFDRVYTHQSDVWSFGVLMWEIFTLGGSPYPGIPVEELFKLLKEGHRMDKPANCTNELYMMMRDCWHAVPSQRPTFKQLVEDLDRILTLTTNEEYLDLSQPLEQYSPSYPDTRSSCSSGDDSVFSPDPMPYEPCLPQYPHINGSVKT
Chain of KDR (h) (P35968 20-1356): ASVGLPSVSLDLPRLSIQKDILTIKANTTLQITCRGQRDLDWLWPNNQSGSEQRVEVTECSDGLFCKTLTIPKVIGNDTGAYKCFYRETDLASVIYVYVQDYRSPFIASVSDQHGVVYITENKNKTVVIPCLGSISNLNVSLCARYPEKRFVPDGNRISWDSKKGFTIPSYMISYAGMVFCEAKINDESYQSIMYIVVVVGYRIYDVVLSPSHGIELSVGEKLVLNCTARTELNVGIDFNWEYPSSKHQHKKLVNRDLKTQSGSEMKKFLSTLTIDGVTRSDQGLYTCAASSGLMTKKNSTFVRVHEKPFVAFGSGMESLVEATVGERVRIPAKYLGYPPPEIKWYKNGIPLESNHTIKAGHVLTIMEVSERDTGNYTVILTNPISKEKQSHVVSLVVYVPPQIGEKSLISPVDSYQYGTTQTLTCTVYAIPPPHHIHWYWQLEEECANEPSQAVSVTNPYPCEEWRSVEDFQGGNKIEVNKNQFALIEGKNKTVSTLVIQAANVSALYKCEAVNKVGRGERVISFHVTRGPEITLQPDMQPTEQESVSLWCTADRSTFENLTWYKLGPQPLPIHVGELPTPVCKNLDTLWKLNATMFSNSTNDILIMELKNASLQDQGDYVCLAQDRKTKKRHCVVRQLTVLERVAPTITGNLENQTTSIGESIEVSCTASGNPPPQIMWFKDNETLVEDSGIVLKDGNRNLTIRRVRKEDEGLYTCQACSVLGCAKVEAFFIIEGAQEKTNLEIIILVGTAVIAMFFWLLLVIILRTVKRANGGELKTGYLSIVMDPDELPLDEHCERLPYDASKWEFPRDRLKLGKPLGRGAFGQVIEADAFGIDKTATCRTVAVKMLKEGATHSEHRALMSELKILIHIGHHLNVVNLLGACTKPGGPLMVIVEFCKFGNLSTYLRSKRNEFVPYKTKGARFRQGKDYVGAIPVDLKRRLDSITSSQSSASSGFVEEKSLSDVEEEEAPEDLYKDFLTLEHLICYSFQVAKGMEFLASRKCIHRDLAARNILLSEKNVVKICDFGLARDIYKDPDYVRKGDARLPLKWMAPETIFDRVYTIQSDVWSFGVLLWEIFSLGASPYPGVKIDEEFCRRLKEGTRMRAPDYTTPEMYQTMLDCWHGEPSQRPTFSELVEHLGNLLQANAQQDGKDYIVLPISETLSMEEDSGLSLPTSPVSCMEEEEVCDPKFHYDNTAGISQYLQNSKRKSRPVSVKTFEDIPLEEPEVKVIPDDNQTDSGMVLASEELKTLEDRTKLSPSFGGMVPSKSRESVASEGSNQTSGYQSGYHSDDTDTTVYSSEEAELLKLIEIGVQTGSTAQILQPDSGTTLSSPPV

SMILES | IC50 [1] [nM] | IC50 (FGFR3 (h)) [nM] | IC50 (FGFR1 (h)) [nM] | IC50 (KDR (h)) [nM] | BAF3-FGFR4 pIC50 [2] | IC50 [3] [nM] | BAF3-FGFR3 (MIN IL3) pIC50 [4] | IC50 (FGFR4 (h)) [nM] | BAF3-FGFR1 (MIN IL3) pIC50 [5] | IC50 (FGFR2 (h)) [nM]
COc1cc(OC)c(F)c(N(CC(=O)N2CCNCC2)c2ccc3ncc(-c4cnn(C)c4)nc3n2)c1 [Compound 262] | > 10000 | 17.4 | 7.24 | 240 | 5.63 | > 10000 | ~6.17 | 55 | 6.51 | 7.24
COc1cc(OC)c(F)c(N(Cc2ncc[nH]2)c2ccc3ncc(-c4cnn(CCS(C)(=O)=O)c4)nc3n2)c1 [Compound 264] | > 10000 | 1.41 | 0.55 | 9.33 | 7.18 | > 10000 | 8.09 | 1.38 | 7.66 | 1.86
COc1cc(OC)c(F)c(N(CCS(C)(=O)=O)c2ccc3ncc(-c4cnn(CCS(C)(=O)=O)c4)nc3n2)c1 [Compound 266] | > 10000 | 1.7 | 1.45 | 34.7 | 5.78 | > 10000 | 6.35 | 4.27 | 6.29 | 2.24
COc1cc(OC)c(F)c(N(CC2CC(O)C(=O)N2)c2ccc3ncc(-c4cnn(C)c4)nc3n2)c1 (stereo not shown) [Compound 269] | > 10000 | 2.14 | 1.62 | 74.1 | 6.29 | > 10000 | ~7.1 | 3.09 | 6.72 | 3.24
COc1cc(/N=c2\ccc3ncc(-c4cnn(C)c4)nc3n2CC2CC(O)C(=O)N2)c(F)c(OC)c1 (stereo not shown) [Compound 270] | > 10000 | 1.1 | 0.776 | 6.46 | 6.40 | > 10000 | 7.00 | 2.29 | 7.12 | 2.09
COc1cc(OC)cc(N(CC2CC(O)C(=O)N2)c2ccc3ncc(-c4cnn(C)c4)nc3n2)c1 (stereo not shown) [Compound 271] | > 10000 | 2.45 | 4.57 | 174 | 5.80 | > 10000 | 6.27 | 7.76 | 6.02 | 3.98
COc1cc(/N=c2\ccc3ncc(-c4cnn(C)c4)nc3n2CC2CC(O)C(=O)N2)cc(OC)c1 (stereo not shown) [Compound 272] | > 10000 | 1.45 | 0.977 | 10 | 5.97 | > 10000 | 6.73 | 5.25 | 6.54 | 2.57
COc1cc(OC)c(C)c(N(Cc2ncc[nH]2)c2ccc3ncc(-c4cnn(C)c4)nc3n2)c1 [Compound 273] | > 10000 | 3.16 | 1.15 | 20.4 | 7.60 | > 10000 | ~8.60 | 2.82 | 8.44 | 3.8
COc1cc(OC)cc(N(CCS(C)(=O)=O)c2ccc3ncc(-c4cnn(CCS(C)(=O)=O)c4)nc3n2)c1 [Compound 275] | > 10000 | 3.39 | 5.89 | 141 | 5.13 | > 10000 | 5.80 | 12 | 5.64 | 3.47
COc1cc(OC)cc(N(CC(C)(C)O)c2ccc3ncc(-c4cnn(C)c4)nc3n2)c1 [Compound 276] | > 10000 | 8.32 | 14.5 | 141 | 5.82 | > 10000 | 6.41 | 69.2 | 6.28 | 9.12
COc1cc(/N=c2\ccc3ncc(-c4cnn(C)c4)nc3n2CC(C)(C)O)cc(OC)c1 [Compound 277] | > 10000 | 1.07 | 0.871 | 15.1 | 6.37 | > 10000 | 7.16 | 4.68 | 6.91 | 2.09
COc1cc(OC)c(F)c(N(CC(C)(C)O)c2ccc3ncc(-c4cnn(C)c4)nc3n2)c1F [Compound 278] | > 10000 | 2.95 | 1.62 | 15.8 | 7.11 | > 10000 | 7.73 | 4.9 | 7.45 | 4.17
COc1cc(OC)cc(N(c2ccc3ncc(-c4cnn(C)c4)nc3n2)C(C)c2ncc[nH]2)c1 (stereo not shown) [Compound 280] | > 10000 | 1.86 | 0.851 | 31.6 | 7.97 | > 10000 | ~8.63 | 2.34 | 8.64 | 2.04
COc1cc(OC)cc(N(Cc2nnc(NCCO)o2)c2ccc3ncc(-c4cnn(C)c4)nc3n2)c1 [Compound 282] | > 10000 | 25.7 | 33.1 | 661 | <5 | > 10000 | <5 | 105 | <5 | 19.1
COc1cc(OC)c(F)c(N(CC2CCC(=O)N2)c2ccc3ncc(-c4cnn(CC(C)(C)O)c4)nc3n2)c1 (stereo not shown) [Compound 285] | > 10000 | 2.75 | 2.34 | 35.5 | 6.12 | > 10000 | 6.84 | 7.24 | 6.38 | 4.07
COc1cc(/N=c2\ccc3ncc(-c4cnn(CC(C)(C)O)c4)nc3n2CC2CCC(=O)N2)c(F)c(OC)c1 (stereo not shown) [Compound 286] | > 10000 | 1.35 | ~1.55 | 11 | 6.69 | > 10000 | 7.66 | 3.89 | 7.07 | 2.04
COc1cc(OC)c(F)c(N(c2ccc3ncc(-c4cnn(C)c4)nc3n2)C(C)c2ncc[nH]2)c1 (stereo not shown) [Compound 287] | > 10000 | 2.14 | 0.851 | 17.4 | 8.08 | > 10000 | ~8.54 | 2.14 | 8.87 | 3.09
CNCCn1ccnc1CN(c1ccc2ncc(-c3cnn(C)c3)nc2n1)c1cc(OC)cc(OC)c1F [Compound 289] | > 10000 | 12.9 | 4.37 | 97.7 | 6.07 | > 10000 | 6.92 | 57.5 | 6.66 | 8.51
COc1cc(OC)cc(N(CCNC2COC2)c2ccc3ncc(-c4cnn(C)c4)nc3n2)c1 [Compound 290] | > 10000 | 4.47 | 3.55 | 55 | 6.32 | > 10000 | 7.06 | 12.9 | 7.09 | 4.47
